According to patent US20050026952A1, “Nicotinamide derivatives useful as PDE4 inhibitors” (Pfizer Inc, priority 2003, published 2005):

Each compound was assayed on TNFα release from human peripheral blood mononuclear cells (assay: Inhibition of LPS-stimulated TNFα release from human peripheral blood mononuclear cells (TNFα screen)). Details: human PBMC, LPS stimulation, 18 hours incubation, TNFα in supernatant by ELISA.
Type: cell-based
Procedure: Venous blood is collected from healthy volunteers and the mononuclear cells purified by centrifugation through Histopaque (Ficoll) cushions. TNFα production from these cells is stimulated by addition of lipopolysaccharide. After 18 hours incubation in the presence of LPS, the cell supernatant is removed and the concentration of TNFα in the supernatant determined by ELISA. Addition of PDE4 inhibitors reduces the amount of TNFα produced. An IC50 is determined which is equal to the concentration of compound that gives 50% inhibition of TNFα production as compared to the LPS stimulated control wells.

SMILES | IC50 [pM]
CSc1cc(Oc2ncc(F)cc2C(=O)N[C@H]2CC[C@@H](NS(=O)(=O)c3cc(C)ccc3O)CC2)ccc1F [Example 16, Syn-5-Fluoro-N-[4-(2-hydroxy-5-methyl-benzenesulphonylamino)-cyclohexyl]-2-(4-fluoro-3-methylsulphanyl-Phenoxy)-nicotinamide] | 3500
CSc1cccc(Oc2ncc(F)cc2C(=O)N[C@H]2CC[C@@H](NS(=O)(=O)c3cccc4nonc34)CC2)c1 [Example 12, Syn-N-[4-(Benzo[1,2,5]oxadiazole-4-sulphonylamino)-cyclohexyl]-5-fluoro-2-(3-methylsulphanyl-phenoxy)-nicotinamide] | 300
CSc1cccc(Oc2ncc(F)cc2C(=O)N[C@H]2CC[C@@H](NS(=O)(=O)c3cccc4nsnc34)CC2)c1 [Example 13, Syn-N-[4-(Benzo[1,2,5]thiadiazole-4-sulphonylamino)-cyclohexyl]-5-fluoro-2-(3-methylsulphanyl-phenoxy)-nicotinamide] | 90
CSc1cccc(Oc2ncc(F)cc2C(=O)N[C@H]2CC[C@@H](NS(=O)(=O)c3cccc4cccnc34)CC2)c1 [Example 11, Syn-5-Fluoro-2-(3-methylsulphanyl-phenoxy)-N-[4-(quinoline-8-sulphonylamino)-cyclohexyl]-nicotinamide] | 70
CSc1cccc(Oc2ncc(F)cc2C(=O)N[C@H]2CC[C@@H](NS(=O)(=O)c3ccc(C)cc3O)CC2)c1 [Example 15, Syn-5-Fluoro-N-[4-(2-hydroxy-4-methyl-benzenesulphonylamino)-cyclohexyl]-2-(3-methylsulphanyl-phenoxy)-nicotinamide] | 2000
CSc1cccc(Oc2ncc(F)cc2C(=O)N[C@H]2CC[C@@H](NS(=O)(=O)c3c(O)ccc4nsnc34)CC2)c1 [Example 14] | 1000
